Compound: CC1(COc2ccc3c(c2)ncn3-c2ccc3cccc(N4CCC(N)CC4)c3n2)COC1 [Crenolanib] + Nc1ncn([C@H]2C[C@H](O)[C@@H](CO)O2)c(=O)n1 [Decitabine] (partner 2 µM)
Assay: relative viability (nuclei count vs DMSO), 5 days (fraction); higher = more cells survive
Details: first compound 0.01 µM
Method in brief: (§1)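 Five library-drug doses in √10 steps were combined with a fixed anchor-drug dose, or a single drug was given alone, by pin tool to lung cancer cell lines in 1536-well plates the day after seeding. Nuclei were stained and counted after 5 days. Relative viability is the nuclei count in treated wells over that in vehicle wells, taken as the median of duplicate plates.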

Cell Line	relative viability
NCI-H1355	0.374
NCI-H650	0.295
NCI-H1666	0.757
H3255	0.674
NCI-H23	0.288
NCI-H1915	0.26
NCI-H1437	0.634
NCI-H322M	0.863
NCI-H1792	0.567
HCC-366	0.33
PC-3 [JPC-3]	0.785
EKVX	0.377
LCLC-103H	0.752
NCI-H1650	0.373
NCI-H1993	0.578

Same assay, conditions: first compound 0.03162 µM

Cell Line	relative viability
LXF-289	0.349
BEN	0.72
HCC-15	0.621
HCC-827	0.329
NCI-H441	0.276
LOU-NH91	0.792
NCI-H2023	0.266
NCI-H460	0.475
NCI-H727	0.851
NCI-H1755	0.74
NCI-H520	0.492
SW 1573	0.591
201T	0.839
NCI-H1975	0.475
HOP-62	0.19
NCI-H2347	0.611

Cell Line	relative viability
NCI-H1355	0.335
NCI-H650	0.306
NCI-H1666	0.576
H3255	0.629
NCI-H23	0.359
NCI-H1915	0.275
NCI-H1437	0.551
NCI-H322M	0.748
NCI-H1792	0.555
NCI-H2085	0.538
HCC-366	0.325
EKVX	0.318
LCLC-103H	0.709
NCI-H1650	0.377
NCI-H1993	0.629

Same assay, conditions: first compound 0.1 µM

Cell Line	relative viability
LXF-289	0.408
BEN	0.76
HCC-15	0.603
HCC-827	0.311
NCI-H441	0.277
LOU-NH91	0.822
NCI-H2023	0.242
A-427	0.592
NCI-H460	0.442
NCI-H727	0.877
NCI-H1755	0.743
NCI-H520	0.451
NCI-H2405	0.671
SW 1573	0.518
201T	0.822
NCI-H1975	0.412
HOP-62	0.29

Cell Line	relative viability
NCI-H2347	0.605
NCI-H1355	0.303
NCI-H650	0.281
NCI-H1666	0.663
H3255	0.588
NCI-H23	0.347
NCI-H1915	0.275
NCI-H1437	0.527
NCI-H322M	0.663
NCI-H1792	0.488
NCI-H2085	0.517
HCC-366	0.329
PC-3 [JPC-3]	0.806
EKVX	0.392
LCLC-103H	0.692
NCI-H1650	0.455
NCI-H1993	0.615

Same assay, conditions: first compound 0.3162 µM

Cell Line	relative viability
LXF-289	0.388
BEN	0.612
HCC-15	0.689
HCC-827	0.308
NCI-H441	0.251
LOU-NH91	0.856
NCI-H2023	0.263
A-427	0.553
NCI-H460	0.682
NCI-H727	0.997
NCI-H1755	0.743
NCI-H520	0.575
NCI-H2405	0.781
SW 1573	0.648
201T	0.884
NCI-H1975	0.375
HOP-62	0.205

Cell Line	relative viability
NCI-H2347	0.674
NCI-H1355	0.407
NCI-H650	0.295
NCI-H1666	0.692
H3255	0.587
NCI-H23	0.353
NCI-H1915	0.247
NCI-H1437	0.562
NCI-H322M	0.73
NCI-H1792	0.569
NCI-H2085	0.546
HCC-366	0.374
PC-3 [JPC-3]	0.82
EKVX	0.319
LCLC-103H	0.769
NCI-H1650	0.322
NCI-H1993	0.62

Same assay, conditions: first compound 1 µM

Cell Line	relative viability
LXF-289	0.413
BEN	0.749
HCC-15	0.65
HCC-827	0.348
NCI-H441	0.243
LOU-NH91	0.853
NCI-H2023	0.213
A-427	0.52
NCI-H460	0.555
NCI-H727	0.904
NCI-H1755	0.697
NCI-H520	0.481
NCI-H2405	0.686
SW 1573	0.52
201T	0.843
NCI-H1975	0.349
HOP-62	0.234

Cell Line	relative viability
NCI-H2347	0.6
NCI-H1355	0.328
NCI-H650	0.33
NCI-H1666	0.806
H3255	0.652
NCI-H23	0.321
NCI-H1915	0.264
NCI-H1437	0.512
NCI-H322M	0.71
NCI-H1792	0.56
NCI-H2085	0.534
HCC-366	0.334
PC-3 [JPC-3]	0.806
EKVX	0.38
LCLC-103H	0.72
NCI-H1650	0.343
NCI-H1993	0.651

Compound: CC1(COc2ccc3c(c2)ncn3-c2ccc3cccc(N4CCC(N)CC4)c3n2)COC1 [Crenolanib] + CC(C)C[C@H](NC(=O)[C@H](Cc1ccccc1)NC(=O)c1cnccn1)B(O)O [Bortezomib] (partner 0.002 µM)
Assay: as above
Details: first compound 0.01 µM
Method in brief: as §1

Cell Line	relative viability
LXF-289	1.07
BEN	0.821
HCC-15	1.15
HCC-827	1.08
NCI-H441	0.29
LOU-NH91	0.336
NCI-H2023	1.03
A-427	0.961
NCI-H460	1.05
NCI-H727	0.905
NCI-H1755	1.03
NCI-H520	0.481
NCI-H2405	0.998
SW 1573	1.04
201T	1.06
NCI-H1975	0.5
HOP-62	1.01

Cell Line	relative viability
NCI-H2347	1.16
NCI-H1355	1.33
NCI-H650	0.944
NCI-H1666	0.9
H3255	0.89
NCI-H23	0.892
NCI-H1915	1
NCI-H1437	0.48
NCI-H322M	1.36
NCI-H1792	1.03
NCI-H2085	1.05
HCC-366	1.01
PC-3 [JPC-3]	0.814
EKVX	1.03
LCLC-103H	1.05
NCI-H1650	0.217
NCI-H1993	0.82

Same assay, conditions: first compound 0.03162 µM

Cell Line	relative viability
LXF-289	0.996
BEN	0.644
HCC-15	1.01
HCC-827	0.962
LOU-NH91	0.474
NCI-H2023	0.95
A-427	1.12
NCI-H460	1.2
NCI-H727	0.92
NCI-H1755	0.993
NCI-H520	0.528
NCI-H2405	0.964
SW 1573	1.15
201T	1.12
NCI-H1975	0.39
HOP-62	0.488
NCI-H2347	0.724

Cell Line	relative viability
NCI-H1355	1.15
NCI-H650	0.767
NCI-H1666	0.711
H3255	0.543
NCI-H23	1.2
NCI-H1915	0.974
NCI-H1437	0.408
NCI-H322M	0.923
NCI-H1792	0.882
NCI-H2085	1.1
HCC-366	1.1
PC-3 [JPC-3]	0.889
EKVX	0.994
LCLC-103H	1.02
NCI-H1650	0.194
NCI-H1993	1.11

Same assay, conditions: first compound 0.1 µM

Cell Line	relative viability
LXF-289	0.935
BEN	0.733
HCC-15	0.909
HCC-827	0.963
NCI-H441	0.535
LOU-NH91	0.45
NCI-H2023	0.934
A-427	0.987
NCI-H460	1.01
NCI-H727	0.821
NCI-H1755	1.01
NCI-H520	0.824
NCI-H2405	0.921
SW 1573	0.996
201T	1.06
NCI-H1975	0.359
HOP-62	0.743

Cell Line	relative viability
NCI-H1355	1.3
NCI-H650	0.769
NCI-H1666	0.858
H3255	0.765
NCI-H23	0.865
NCI-H1915	0.929
NCI-H1437	0.557
NCI-H322M	1.1
NCI-H1792	0.879
NCI-H2085	1.07
HCC-366	0.902
PC-3 [JPC-3]	0.779
EKVX	0.974
LCLC-103H	0.922
NCI-H1650	0.197
NCI-H1993	1.04

Same assay, conditions: first compound 0.3162 µM

Cell Line	relative viability
LXF-289	1
BEN	0.881
HCC-15	1.05
HCC-827	1.04
NCI-H441	0.446
LOU-NH91	0.49
NCI-H2023	1.14
A-427	1.01
NCI-H460	1.6
NCI-H727	0.869
NCI-H1755	0.967
NCI-H520	0.779
NCI-H2405	1.05
SW 1573	1.29
201T	1.04
NCI-H1975	0.385
HOP-62	0.317

Cell Line	relative viability
NCI-H2347	0.727
NCI-H1355	1.37
NCI-H650	0.855
NCI-H1666	1.01
H3255	0.7
NCI-H23	1.16
NCI-H1915	1.03
NCI-H1437	0.515
NCI-H322M	1.27
NCI-H1792	1.13
NCI-H2085	1.11
HCC-366	1.12
PC-3 [JPC-3]	0.831
EKVX	1.2
LCLC-103H	0.954
NCI-H1650	0.205
NCI-H1993	1.06

Same assay, conditions: first compound 1 µM

Cell Line	relative viability
LXF-289	0.95
BEN	0.761
HCC-15	0.956
HCC-827	0.933
NCI-H441	0.557
LOU-NH91	0.513
NCI-H2023	0.578
A-427	1.03
NCI-H460	0.954
NCI-H727	0.991
NCI-H1755	0.909
NCI-H520	0.628
NCI-H2405	0.976
SW 1573	1.15
201T	1.07
NCI-H1975	0.295
HOP-62	0.309

Cell Line	relative viability
NCI-H2347	1.19
NCI-H1355	0.951
NCI-H650	0.68
NCI-H1666	0.667
H3255	0.759
NCI-H23	0.696
NCI-H1915	0.772
NCI-H1437	0.526
NCI-H322M	1.4
NCI-H1792	0.94
NCI-H2085	0.968
HCC-366	0.949
PC-3 [JPC-3]	0.749
EKVX	1.08
LCLC-103H	0.976
NCI-H1650	0.203
NCI-H1993	0.994

Reference: the supplement of paper PMC10307832
